In paper PMC4530782 (Bioorganic & medicinal chemistry letters, 2011):

Columns and labels:
[1] = test system: MDA-468 (breast) cancer cells; test: Whole cell MTS cytotoxicity assay, MDA-468; type: cell-based; details: Homo sapiens, 72 h, read-out: EC50 MDA-468
[2] = test system: DU145 (prostate) cancer cells; test: Whole cell MTS cytotoxicity assay, DU145; type: cell-based; details: Homo sapiens, DU-145, 72 h, read-out: EC50 DU145
[3] = test system: JJN3 (multiple myeloma) cancer cells; test: Whole cell MTS cytotoxicity assay, JJN3; type: cell-based; details: Homo sapiens, JJN-3, 72 h, read-out: EC50 JJN3
[4] = test system: Stat3 phosphorylation in MDA-468 cells; type: cell-based, human; details: 24 hrs
[5] = test system: Stat3 phosphorylation in JJN3 cells; type: cell-based, human; details: 24 hrs
[6] = target: Stat5; details: read-out: Stat5 Ki, fluorescence polarization; earlier work on 7; cited from earlier work
[7] = target: Stat1; details: read-out: Stat1 Ki, fluorescence polarization; earlier work on 7; cited from earlier work
[8] = test system: NIH3T3, TE-71 and HPDEC cells; details: cited from earlier work
[9] = test system: breast tumor xenografts; details: cited from earlier work
[10] = Water solubility; type: physicochemical; details: compared with 7 and 17e

Row | Compound | EC50 [1] [µM] | EC50 [2] [µM] | EC50 [3] [µM] | concentration at which Stat3 phosphorylation is inhibited ([4]; Western blot) | concentration at which Stat3 phosphorylation is inhibited ([5]; Western blot) | Ki [6] [µM] | Ki [7] [µM] | effects against 'healthy' cells lacking activated Stat3 [8] | in vivo effect on breast tumor xenografts [9] | water solubility (in words) [10] | levels of Stat3 downstream targets (cMYC, Bcl-xL, Survivin) ([4]; immunoblotting) | levels of Stat3 downstream targets (cMYC, Bcl-xL, Survivin) ([5]; immunoblotting)
1 | Cc1ccc(S(=O)(=O)N(C)CC(=O)N(Cc2ccc(C3CCCCC3)cc2)c2ccc(C(=O)O)c(O)c2)cc1 [compound 7] | 17 ± 4.4 | 37.2 ± 12.4 | 93.3 ± 15.8 | approximately 100 μM | approximately 100 μM | > 25 | > 25 | negligible effects | suppression of breast tumor xenografts |  |  | 
2 | CN(CC(=O)N(Cc1ccc(C2CCCCC2)cc1)c1ccc(C(=O)O)c(O)c1)S(=O)(=O)c1c(F)c(F)c(F)c(F)c1F [17o] |  |  |  |  |  |  |  |  |  | much improved water solubility over both 7 and 17e | effectively reduced levels of Stat3 downstream targets | effectively reduced levels of Stat3 downstream targets
